Molecular target: T1, Tyrosine-protein phosphatase non-receptor type 1 (Homo sapiens, UniProt P18031)
T1 sequence (P18031 whole entry): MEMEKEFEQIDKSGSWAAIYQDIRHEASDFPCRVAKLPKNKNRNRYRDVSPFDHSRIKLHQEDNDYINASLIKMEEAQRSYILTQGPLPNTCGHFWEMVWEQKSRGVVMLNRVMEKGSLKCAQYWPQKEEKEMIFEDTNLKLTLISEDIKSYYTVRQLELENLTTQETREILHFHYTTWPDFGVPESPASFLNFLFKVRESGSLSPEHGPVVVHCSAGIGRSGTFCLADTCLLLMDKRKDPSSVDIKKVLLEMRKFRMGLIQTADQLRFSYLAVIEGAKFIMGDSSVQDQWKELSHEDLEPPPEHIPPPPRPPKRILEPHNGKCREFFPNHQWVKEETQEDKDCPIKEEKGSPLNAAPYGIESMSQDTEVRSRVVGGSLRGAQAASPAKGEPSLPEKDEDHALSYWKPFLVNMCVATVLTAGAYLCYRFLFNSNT
Assay: Inhibition of GST-tagged PTP1B (1 to 321 residues) (unknown origin) using p-NPP as substrate preincubated for 10 mins followed by substrate addition measured after 30 mins

| Structure (SMILES) | IC50 |
| --- | --- |
| CCCC/C=C\CCCCCCCCCC1(O)CC(=O)c2c(O)c(C)c(O)c(C)c2O1 (stereo unspecified) | 1800 nM |
| CC/C=C\C/C=C\C/C=C\CCCCCCCC1(O)CC(=O)c2c(O)cc(O)cc2O1 (stereo unspecified) | 450 nM |
| CCCCC/C=C\C/C=C\CCCCCCCC1(O)CC(=O)c2c(O)cc(O)cc2O1 (stereo unspecified) | 420 nM |
| CCCCCCCCCCCCCCCC1(O)CC(=O)c2c(O)cc(O)cc2O1 (stereo unspecified) | 2000 nM |

More lines, in order of falling IC50, values ahead:

| IC50 | Structure (SMILES) |
| --- | --- |
| 2700 nM | CCCCC/C=C\C/C=C\CCCCCCCC1(O)CC(=O)c2c(O)c(C)c(O)c(C)c2O1 (stereo unspecified) |
| 1600 nM | CC/C=C\C/C=C\C/C=C\CCCCCCCC1(O)CC(=O)c2c(O)c(C)c(O)c(C)c2O1 (stereo unspecified) |
